From patent publication US7964643B2, “Aryl alkyl sulfonamides as therapeutic agents for the treatment of bone conditions” (The University Court of the University of Aberdeen, priority 2004, dated 2011)

How the values were obtained:
[1] = test system: J774 macrophage cell line; assay: Alamar Blue macrophage J774 viability assay; assay type: cell-based; conditions: Mus musculus, J774, 72 h, 72 hours culture with compound, Alamar Blue, read-out: IC50 (J774)
Protocol: Initial screening of candidate compounds was performed using viability assays, on cultures of the macrophage cell line J774, which have been used before as a model system for osteoclast survival (see, e.g., Luckman et al., 1998). The assays are based on the survival of the J774 macrophage cell line; macrophages are closely related to osteoclasts, and contain similar high levels of esterase activity.
J774 cells were plated at 10^4 cells per well in 150 μL αMEM (α Modified Eagle Medium) in 96-well plates and grown overnight. The next day, compounds were added to the cultures, and culture was continued for another 72 hours. At the end of the culture period cell survival was determined using an Alamar Blue assay as previously described (see, e.g., Nociari et al., 1998).
Alamar Blue is an oxidation-reduction sensitive indicator. The dye itself is in the oxidised state, which is blue and non-fluorescent. The dye can accept electrons from reducing species, such as NADPH and FADH, to form a reduced dye species, which is red and fluorescent. Thus the transformation from oxidised form to reduced form can be measured by fluorimetric or colourimetric means. For fluorescence measurements, 530-560 nm excitation and 590 nm emission wavelengths are typically used. For colourimetric measurements, absorbance is measured at 570 nm (reduced form) and 600 nm (oxidised form) and a simple calculation performed to determine the relative quantities of the two species.
A high ratio of the reducing species, NADPH and FADH, to the corresponding oxidised species, NADP and FAD, is an indicator that cells are proliferating and viable. A low ratio indicates cells that are quiescent or non-viable.
Briefly, Alamar Blue (Biosource International) was added undiluted to the each well (1:10 v/v, 15 μL). The plate was incubated at 37° C. for 3-4 hours and the fluorescence was measured at 570 nm, with a 25 nm bandwidth. A high reading indicated cells with normal viability, and a low reading indicates cells that have been damaged and are no longer proliferating normally. The controls gave a high fluorescence reading, indicating a high number of live, healthy cells. A potent test compound gave a low fluorescence reading. The average results for each test compound (n=5) were expressed as a percent (%) of the average control value.
Addition of Compounds. All of the compounds studied were made up as 100 mM solutions in DMSO. These stock solutions were then diluted 100 or 1000× in culture medium (αMEM). From these 1 mM or 100 μM solutions, convenient quantities (3-15 μL) were added directly to the wells so as to give the desired final compound concentration.

[2] = test system: osteoclast precursors; assay: Murine co-culture system, osteoclast formation (osteoclast number by TRAcP staining); assay type: cell-based; conditions: Mus musculus, after 72 hours exposure, FIG. 2, read-out: IC50 against osteoclast precursors (FIG. 2)
Protocol: The first model system, the murine co-culture system, studies the formation of osteoclasts from precursors present in the bone marrow. The number of osteoclasts and the amount of dentine resorption was measured.
Osteoclast formation and activity was studied using an adaptation (see, e.g., van't H of & Ralston, 1997) of the osteoblast-bone marrow co-culture assay originally described by Takahashi et al., 1988.
Co-Culture Methods. Co-culture (see, e.g., Van't H of et al., 1997) is a method to study the formation of osteoclasts from their precursors. In this assay, osteoblasts were obtained from the calvaria of 2-3 day old neonatal mice. […] At the end of the culture osteoclasts were identified by TRAcP staining and the resorption activity was measured in the same manner as for rabbit osteoclasts.
Osteoblast Plating. […] The cells were counted and then seeded in a 96 well plated containing dentine slices, at 8×10^3 cells per well in 100 μl medium containing 1000× dilution of stock 1,25-dihydroxyvitamin D3 (final conc. 10 nM/well) to stimulate the expression of RANKL and cultured overnight. […]
More specifically, the femurs and tibia were dissected from 2-3 adult C57/bl6 mice (3-6 months old) and the surrounding tissue was removed. […] The bone marrow cells were counted and then added to the 96 well plate containing the osteoblasts at 2×10^5 cells/well in 50 μL medium. […]

Structure (SMILES): Cc1cc(S(=O)(=O)NCCCCO)ccc1-c1ccc(F)cc1F [ABD-295, 2′,4′-Difluoro-2-methylbiphenyl-4-sulfonic acid-(4-hydroxybutyl)-amide]
- IC50 [1]: 800 ± 100 nM
- IC50 [2]: 200 nM
